Experimental findings from patent US4317917A, “Derivatives of methyl-substituted or methoxy-substituted 2-hydroxybenzoic acids, and pharmaceutical formulations containing them” (priority 1979, dated 1982) are described below.

The test system of data set [1] is edema induced in the rear paw of the rat by carrageen. Put plainly: Antiinflammatory activity, edema by carrageen in the rear paw of the rat (method of Winter). In kind it is in vivo, Wistar rat. On the procedure: The antiinflammatory activity of AF1 was evaluated in comparison with that of a known drug (Tanderil®) by inhibiting the edema induced in the rear paw of the rat by carrageen. The method used is that described by Winter.
The substances examined were administered orally to Wistar rats having a body weight of 165±15 g.
The percentage edema inhibition for the various groups of animals was calculated by putting the average percentage increase of the control group equal to 100.

Data set [2] relates to painful reaction. Put plainly: Analgesic activity in the mouse (method of Ben Bassat and coll.). In kind it is in vivo. The settings on record: 100 mg/kg oral. How it is done: The analgesic activity of the compound under examination was tested in the mouse by the method of Ben Bassat and coll. (Arch. Int. Pharmacodyn, 122, 434, 1954) and comparing the drug in question with Tanderil® (T).

For data set [3], the system named is stomachs. The experiment in a line: Ulcerogenic action in the female Wistar rat. The settings on record: four hours after treatment. The format is in vivo. How it is done: The ulcerogenic action of the product was evaluated in the female Wistar rat in comparison with that of other known antiinflammatory drugs.
The products were administered orally in a dose corresponding to about two fifths their LD50.
The animals were sacrificed four hours after treatment, and the stomachs examined to check any presence of ulcers.

Data set [4] relates to Micrococcus catarrhalis. The experiment in a line: In vitro antibacterial activity, minimum inhibiting concentration (C.M.I.), Micrococcus catarrhalis. The settings on record: Gram (-), Difco nutrient broth. In kind it is cell-based. On the procedure: (§1) The antiseptic power of the substance under examination was evaluated by determining the minimum inhibiting concentration (C.M.I.) on a series of Gram negative and Gram positive germs related to the pathology of the respiratory tree.
(§2) The culture broth used was Difco nutrient broth, and 8 test samples were used for each concentration tested. Guaiacol was used as the comparison drug.

For data set [5], the system named is Micrococcus pyogenes. Put plainly: In vitro antibacterial activity, minimum inhibiting concentration (C.M.I.), Micrococcus pyogenes. The format is cell-based. As to conditions: Staphylococcus aureus, Gram (+), Difco nutrient broth. On the procedure:
as §1, §2

Data set [6] relates to Sarcina lutea. Put plainly: In vitro antibacterial activity, minimum inhibiting concentration (C.M.I.), Sarcina lutea. In kind it is cell-based. As to conditions: Micrococcus luteus, Gram (+), Difco nutrient broth. How it is done:
as §1, §2

The subject of data set [7] is Micrococcus tuberc. (bovis). The experiment in a line: In vitro antibacterial activity, minimum inhibiting concentration (C.M.I.), Micrococcus tuberc. (bovis). In kind it is cell-based. The settings on record: read-out: Minimum inhibiting concentration. How it is done: as §1, §2
Data set [8] relates to Haemophilus influeniae. The experiment in a line: In vitro antibacterial activity, minimum inhibiting concentration (C.M.I.), Haemophilus influeniae. In kind it is cell-based. The settings on record: Gram (-), Difco nutrient broth. How it is done:
as §1, §2

Data set [9] can be described thus: Acute toxicity (LD50) in the Swiss mouse. As to conditions: in vivo, 95% reliability limits in brackets, seventh day. How it is done: (§3) Acute toxicity of the product was studied in the Swiss mouse and Wistar rat by oral and intraperitoneal administration. The substance was carried in 5% gum arabic for both methods of administration. The volumes inoculated for both methods of administration were 20 ml/kg of body weight for the mouse and 5 ml/kg for the rat. The LD50 values expressed in mg/kg were calculated on the seventh day of treatment by the probital analysis method.

Data set [10] has as its system tissues where the drug was introduced. Put plainly: Local tolerability check, intramuscular administration in the rat. In kind it is in vivo. The settings on record: 60-120 mg/kg/die, 25 consecutive days.
Data set [11] has as its system conjunctival sac of the eye of a rabbit. The experiment in a line: Local tolerability check, conjunctival sac of the rabbit eye. The format is in vivo. The settings on record: 0.5 solution dropped into conjunctival sac.
Data set [12] in a line: Acute toxicity (LD50) in the Wistar rat. The settings on record: in vivo, seventh day. On the procedure: as §3
In data set [13] the test system is rat. The experiment in a line: Subacute toxicity in the rat by intramuscular administration. The format is in vivo. The settings on record: 60 and 120 mg/kg/die, 25 consecutive days. How it is done:
2. Subacute toxicity in the rat by intramuscular administration
The test was carried out for 25 consecutive days using drug doses of 60 and 120 mg/kg/die.

Data set [14] has as its system edema induced by kaolin. The experiment in a line: Antiinflammatory activity, edema by kaolin, diameter of the tibiotarsal joint. The format is in vivo, rat. How it is done:
The antiedematous action of AF1 was also investigated by the test of Conbon and coll. (Arch.Int.Pharmacodyn. 99; 474, 1954), consisting of measuring the diameter of the tibiotarsal joint in both the rear paws of the rat. Groups of five animals representing controls and treated animals were used for two separate experiments. 0.2 ml of a sterile 10% kaolin suspension was injected directly into the joint of the two rear paws of each animal.
The joint diameter was measured one hour after the kaolin injection and then every 24 hours afterwards for five consecutive days. The AF1 compound was administered intraperitoneally in a quantity of 100 mg/kg one hour after the kaolin injection and at the same time on the following days over the entire test period.

Data set [15] relates to gastric or duodenal lesion. The experiment in a line: Gastric or duodenal lesions in mice treated for 5 consecutive days. In kind it is in vivo. The settings on record: 200 mg/kg per day.
Where [16] appears, read: day 1 after kaolin, 100 mg/kg/day intraperitoneally.
[17] abbreviates: day 2 after kaolin, 100 mg/kg/day intraperitoneally.
[18] abbreviates: day 3 after kaolin, 100 mg/kg/day intraperitoneally.
The mark [19] stands for this setting: day 4 after kaolin, 100 mg/kg/day intraperitoneally.
The mark [20] stands for this setting: day 5 after kaolin, 100 mg/kg/day intraperitoneally.

The structures appear in SMILES notation. Values after ≈ are worked out from the molar mass of the structure shown.

As to `CCCCC1C(=O)N(c2ccccc2)N(c2ccc(O)cc2)C1=O` (stereo not shown) [Tanderil, reference compound], the “Percentage edema inhibition relative to the controls” value is listed as 58% in data set [1] (25 mg/kg oral, 4 hours); 68% in [1] (25 mg/kg oral, 6 hours); 56% in data set [1] (50 mg/kg oral, 4 hours); 78% in data set [1] (50 mg/kg oral, 6 hours). The “% Increase in the painful reaction time relative to the controls” value in data set [2] (30 min.) is listed as 11%; in [2] (60 min.), 14%; in data set [2] (90 min.) it was 15%; in data set [2] (120 min.) it was 20%; in data set [2] (150 min.) it was 21%.
Regarding `COc1ccc2cc([C@H](C)C(=O)O)ccc2c1` [Naproxen, reference compound], the “No. of ulcerated animals/No. of treated animals” value in data set [3] (200 mg/kg oral) was 5/10.
Take `COc1ccccc1O` [Guaiacol, reference compound]: the MIC was found to be 16.6 mg/mL (≈ 134 mM) in data set [4]; 33 mg/mL (≈ 266 mM) in data set [5]; 33 mg/mL (≈ 266 mM) in [6]; 33 mg/mL (≈ 266 mM) in [7]; 33 mg/mL (≈ 266 mM) in data set [8].
What is called LD50 is the dose expected to kill half of the subjects tested. For the compound `Cc1ccc(OC(=O)C=Cc2ccccc2)c(C(=O)O)c1` [AF1, 2-(3-phenyl-2-propenoyloxy)-5-methylbenzoic acid], the “Percentage edema inhibition relative to the controls” value in data set [1] (25 mg/kg oral, 4 hours) was found to be 42%; in [1] (25 mg/kg oral, 6 hours) it was 71%; in data set [1] (50 mg/kg oral, 4 hours), 62%; in data set [1] (50 mg/kg oral, 6 hours), 84%; in data set [1] (75 mg/kg oral, 4 hours) it was 73%; in data set [1] (75 mg/kg oral, 6 hours), 87%. In addition, the 50% lethal dose (LD50) at 168 h was 410 mg/kg in [9] (ip); 902 mg/kg in data set [9] (oral); 734 mg/kg in [12] (ip, 95% reliability limits in brackets); > 2000 mg/kg in data set [12] (oral). Besides, the “macroscopic change in the tissues where the drug was introduced” value in data set [10] is reported as “no macroscopic change in the tissues where the drug was introduced”. Besides, in data set [10], the “other undesirable local phenomena” value is listed as “neither were other undesirable local phenomena observed”. Besides, the “irritating or damaging modification to local tissues” value in [11] is “no irritating or otherwise damaging modification to local tissues”. For the same compound, the “% Increase in the painful reaction time relative to the controls” value in data set [2] (30 min.) came out at 22%; in data set [2] (60 min.), 32%; in data set [2] (90 min.), 36%; in data set [2] (120 min.) it was 48%; in data set [2] (150 min.) it was 51%. Also, the MIC in [4] stood at 4.3 mg/mL (≈ 15.2 mM); in [5], 16.6 mg/mL (≈ 58.8 mM); in data set [6], 9.15 mg/mL (≈ 32.4 mM); in data set [7], 3.15 mg/mL (≈ 11.2 mM); in [8], 16 mg/mL (≈ 56.7 mM). Also, in [13], the “condition of the rats” value is listed as “always excellent”. Besides, the “significant changes in general condition and weight” value in data set [13] was “neither were there significant changes in general condition and weight”. Moreover, the “No. of ulcerated animals/No. of treated animals” value in data set [3] (400 mg/kg oral) is given as 0/10; in data set [3] (800 mg/kg oral) it was 1/10. For the same compound, the “Average of diameters, treated animals” value is given as 6.9 mm in data set [14] (0 + 1 hour after kaolin (time of first AF1 dose)); 5.8 mm in [14] (day 0 (baseline, before AF1)); 8.8 mm in data set [14] (setting [16]); 8.7 mm in data set [14] (setting [17]); 8.0 mm in data set [14] (setting [18]); 7.9 mm in data set [14] (setting [19]). Further, the “Average of diameters, treated animals” value in data set [14] (setting [20]) was found to be 7.5 mm. The “% change in tibiotarsal joint diameter relative to controls” value in data set [14] (setting [16]) was -11.1%; in data set [14] (setting [17]), -14.7%; in [14] (setting [18]), -26.6%; in data set [14] (setting [19]) it was -23.3%; in data set [14] (setting [20]), -25.7%. Also, in [15], the “gastric or duodenal lesion” value was “no sign of any gastric or duodenal lesion”.
